Laboratory results reported in patent US20090088373A1, “USE OF COMPOSITIONS TO ENHANCE INNATE IMMUNE RESPONSE” (priority 2007, published 2009).

Tests used:
[1] = tested on: HBD3; assay: HBD3 expression in normal human keratinocytes (NHEK); format: cell-based; set-up: unit not given here; details: Example 2
Description: To assess the effect of pimecrolimus on the innate immune response of the epidermis, cultures of normal human keratinocytes (NHEK) are stimulated with combinations of a concentration of 10 nM pimecrolimus, 1 μg/ml TLR 2/CD14 ligand—peptidoglycan (PGN), 10 μg/ml lipoteichoic acid (LTA), 2 0.1 μg/ml TLR 2/6 ligand—Malp-, and/or 0.1 μg/ml TLR 4/CD14 ligand—lipopolysaccharide (LPS). Expression of cathelicidin mRNA (Table 3) and protein as well as Human Beta Defensin (HBD) 2 (Table 4) and HBD3 (Table 5) expression in normal human keratinocytes is measured.

[2] = tested on: TLR2; assay: TLR2 gene expression by qPCR in NHEK; format: cell-based, human; details: for TLR2 mRNA expression (Mean): 10 nM pimecrolimus; for TLR2 mRNA expression (Means of N = 3): Example 6, 10 nM Pimecrolimus, 1 nM 1,25D3; for TLR2 gene expression (Mean): Example 8, 24 hours
Description: To assess the effect of pimecrolimus on the innate immune response of the epidermis, cultures of normal human keratinocytes (NHEK) are stimulated with a combination of a concentration of 10 nM pimecrolimus and of 1 nM 1.25D3. Gene expression of TLR1, TLR2, TLR4, TLR6 and CD14 are evaluated by qPCR. For CD14 protein expression, a Western Blot is performed and bands are quantified by densitometry using lmagej. Vehicle treated keratinocytes serve as controls. Cathelicidin protein expression is evaluated by immunofluorescence staining.
To assess the effect of pimecrolimus on the innate immune response of the epidermis, cultures of normal human keratinocytes (NHEK) are stimulated with a concentration of 10 nM pimecrolimus,1 nM 1.25 D3, 0.1 μg/ml TLR2/6 ligand Malp-2 or their combination. Expression of cathelicidin, CD14 and TLR2 mRNA normal human keratinocytes is measured and evaluated accordingly to the procedures as detailed in Example 2 above.
To assess the effect of time dependent effects of pimecrolimus on the innate immune response of the epidermis, cultures of normal human keratinocytes (NHEK) are stimulated with 10 nM Pimecrolimus and low dose calciferol (1,25D3) 1 nM for different time points. mRNA expression of cathelicidin, CD14 and TLR2 is analyzed by qPCR.
To assess the effect of calciferol on varying levels of pimecrolimus on the innate immune response of the epidermis, cultures of normal human keratinocytes (NHEK) are stimulated with 0.01 nM, 0.1 nM, 1 nM and 10 nM concentrations of pimecrolimus with or without 1 nM concentrations of calciferol for 24 hours. Expression of cathelicidin mRNA and gene expression of TLR2 is measured and evaluated accordingly to the procedures as detailed in Example 2 above.

CC[C@@H]1/C=C(\C)C[C@H](C)C[C@H](OC)[C@H]2O[C@@](O)(C(=O)C(=O)N3CCCC[C@H]3C(=O)O[C@H](/C(C)=C/[C@@H]3CC[C@H](Cl)[C@H](OC)C3)[C@H](C)[C@@H](O)CC1=O)[C@H](C)C[C@@H]2OC [Pimecrolimus, pimecrolimus]
HBD3 expression (Mean) ([1]; with 10 nM Pimecrolimus + 0.1 μg/ml LPS): 1.06
HBD3 expression (Mean) ([1]; with 10 nM Pimecrolimus + 0.1 μg/ml Malp-2): 28.59
HBD3 expression (Mean) ([1]; with 10 nM Pimecrolimus + 1 μg/ml PGN): 1.24
HBD3 expression (Mean) ([1]; with 10 nM Pimecrolimus + 10 μg/ml LTA): 0.72
HBD3 expression (Mean) ([1]; with 10 nM Pimecrolimus, no TLR ligand (control row)): 0.72
TLR2 mRNA expression (Mean) ([2]; Example 3, 1 nM 1.25D3): 1.80
TLR2 mRNA expression (Mean) ([2]; Example 4, 1 nM 1.25 D3, 0.1 μg/ml Malp-2 or combination): 0.29
TLR2 mRNA expression (Means of N = 3) ([2]; 0 h): 1.00
TLR2 mRNA expression (Means of N = 3) ([2]; 8 h): 0.64
TLR2 mRNA expression (Means of N = 3) ([2]; 24 h): 1.31
TLR2 mRNA expression (Means of N = 3) ([2]; 48 h): 1.51
TLR2 gene expression (Mean) ([2]; 0.01 nM PIM with 1 nM 1.25D3): 0.82
TLR2 gene expression (Mean) ([2]; 0.01 nM PIM, no 1.25D3): 0.73
TLR2 gene expression (Mean) ([2]; 0.1 nM PIM with 1 nM 1.25D3): 0.57
TLR2 gene expression (Mean) ([2]; 0.1 nM PIM, no 1.25D3): 0.59
TLR2 gene expression (Mean) ([2]; 1 nM PIM with 1 nM 1.25D3): 1.07
TLR2 gene expression (Mean) ([2]; 1 nM PIM, no 1.25D3): 0.98
TLR2 gene expression (Mean) ([2]; 10 nM PIM with 1 nM 1.25D3): 3.94
TLR2 gene expression (Mean) ([2]; 10 nM PIM, no 1.25D3): 1.80
TLR2 expression (in words) ([2]; in the presence of low dose 1,25D3 and Malp-2): increasing
